Source: patent US11278550B2, “Compositions and methods for the treatment of Prader-Willi syndrome” (Duke University, priority 2016, dated 2022)
“Also recorded” adds a separate entry of the source.

Legend:
human PWS fibroblasts [1] = experiment: Western blot of SNRPN protein in human PWS fibroblasts; format: cell-based; settings: 4 μM, 72 hr
human PWS fibroblasts [2] = experiment: Chromatin immunoprecipitation (ChIP-qPCR) of H3K9me2/H3K9me3; format: cell-based
Protocol: Histone methylations on the SNRPN locus in human fibroblasts were analyzed by chromatin immunoprecipitation assay (ChIP) using the protocol as previously reported (see Fulmer-Smentek et al., Human molecular genetics 10, 645-652 (2001)). ChIP assay was performed using ChIP-IT Express magnetic kit (Active Motif) according to the manufacturer's instructions with modification for the fixation and reverse-crosslinking steps. Briefly, native chromatin was prepared without fixation and enzymatic digestions to average 150-500 bp sized chromatin. 20 μg of chromatin was added to the specific antibodies (2 μg) or species control isotype antibodies for each immunoprecipitation reaction. The antibody-chromatin complexes were bound to protein G magnetic beads for recovering chromatin immunoprecipitates. RNase- and proteinase K-treated DNA was purified using PCR purification columns (Promega). DNA recovery was quantified by real time PCR performed on the LightCycler480 instrument (Roche) using SsoAdvanced Universal SYBR green Supermix (Biorad). Antibodies were anti-rabbit acetylated H3 (Millipore 06-599), anti-mouse monoclonal Histone H3 dimethyl K9 (Abcam 1220) and Histone H3 trimethyl K9 (Millipore, 07-442) antibodies. qPCR reactions were performed with the following cycling parameters: at 95° C./5 min followed by 40 cycles of 95° C./30 sec, 60° C./60 sec. Data was normalized to the total input.

m+/pΔS-U mice = experiment: RNA and protein expression in PWS mouse tissues; format: in vivo
Protocol: (§1) For testing long lasting drug effects, the 6 week-old m^S-EGFP/p^+ mice were treated daily by i.p. injection for seven consecutive days.
Western blot analysis was performed as previously described by Wang, et al., Molecular Autism 5, 30 (2014). Briefly, total protein was extracted from collected tissues (liver and brain) using modified RIPA buffer (1× PBS, 1% Triton X-100, 0.1% SDS, 2 mM EDTA, and protease inhibitors). SDS-PAGE resolved 25 μg of total proteins and they were transferred to polyvinylidene difluoride (PVDF) membranes. The PVDF membranes were blocked with BLOTTO (5% skim milk and 0.1% Tween-20 in 1× TBS buffer), and incubated with primary target antibodies, rabbit anti-Snrpn (Protein Tech, cat. no. 11070-1-AP) at 1:400, and rabbit anti-Ube3a (Bethyl Lab, cat. no. A300-352A-T) at 1:1,000 working concentration in BLOTTO at 4° C. overnight. The next day, following incubation with horseradish peroxidase-conjugated secondary antibodies, the membranes were incubated with a Pierce chemiluminescent substrate and exposed to X-ray film or imaged by AI600 (GE Healthcare Life Science).
(§2) For reverse-transcription PCR (RT-PCR) and quantitative real time RT-PCR (qRT-PCR), first total RNA was extracted from the fibroblasts and/or collected tissues (liver and brain) using Direct-zol RNA Miniprep kit (Zymo Research cat. no. R2070). 2 μg of total RNA was directly used for single strand cDNA synthesis with Superscript III reverse transcriptase (Invitrogen cat. no. 18080-093) according to the manufacturer's protocols. The conditions for RT-PCR were 95° C./5 min, 35-40 cycles of 95° C./30 sec, 56-60° C./60 sec, 72° C./60 sec. Quantification of target gene expression was performed in a LightCycler480 instrument (Roche) using SsoAdvanced Universal SYBR green Supermix (Biorad cat. no. 172-5271) according to the manufacturer's instructions. See Table 4 for primer sequences and conditions used for experiments for RT-PCR, qRT-PCR, bisulfite genomic sequencing, ChIP-qPCR, and chromatin accessibility assay.

[3] = tested on: adult Snrpn-EGFP mouse model; experiment: Long-lasting unsilencing in adult Snrpn-EGFP mice; format: in vivo; settings: 1, 4, and 12 weeks after the last dose; brain
Protocol: as §1, §2

G9a = molecular target: T1, G9a (Mus musculus, UniProt Q9Z148); settings: single dose of 5 mg/kg i.p.; cited from earlier work
T1 construct: from tissue
T1 sequence (Q9Z148 1-1263): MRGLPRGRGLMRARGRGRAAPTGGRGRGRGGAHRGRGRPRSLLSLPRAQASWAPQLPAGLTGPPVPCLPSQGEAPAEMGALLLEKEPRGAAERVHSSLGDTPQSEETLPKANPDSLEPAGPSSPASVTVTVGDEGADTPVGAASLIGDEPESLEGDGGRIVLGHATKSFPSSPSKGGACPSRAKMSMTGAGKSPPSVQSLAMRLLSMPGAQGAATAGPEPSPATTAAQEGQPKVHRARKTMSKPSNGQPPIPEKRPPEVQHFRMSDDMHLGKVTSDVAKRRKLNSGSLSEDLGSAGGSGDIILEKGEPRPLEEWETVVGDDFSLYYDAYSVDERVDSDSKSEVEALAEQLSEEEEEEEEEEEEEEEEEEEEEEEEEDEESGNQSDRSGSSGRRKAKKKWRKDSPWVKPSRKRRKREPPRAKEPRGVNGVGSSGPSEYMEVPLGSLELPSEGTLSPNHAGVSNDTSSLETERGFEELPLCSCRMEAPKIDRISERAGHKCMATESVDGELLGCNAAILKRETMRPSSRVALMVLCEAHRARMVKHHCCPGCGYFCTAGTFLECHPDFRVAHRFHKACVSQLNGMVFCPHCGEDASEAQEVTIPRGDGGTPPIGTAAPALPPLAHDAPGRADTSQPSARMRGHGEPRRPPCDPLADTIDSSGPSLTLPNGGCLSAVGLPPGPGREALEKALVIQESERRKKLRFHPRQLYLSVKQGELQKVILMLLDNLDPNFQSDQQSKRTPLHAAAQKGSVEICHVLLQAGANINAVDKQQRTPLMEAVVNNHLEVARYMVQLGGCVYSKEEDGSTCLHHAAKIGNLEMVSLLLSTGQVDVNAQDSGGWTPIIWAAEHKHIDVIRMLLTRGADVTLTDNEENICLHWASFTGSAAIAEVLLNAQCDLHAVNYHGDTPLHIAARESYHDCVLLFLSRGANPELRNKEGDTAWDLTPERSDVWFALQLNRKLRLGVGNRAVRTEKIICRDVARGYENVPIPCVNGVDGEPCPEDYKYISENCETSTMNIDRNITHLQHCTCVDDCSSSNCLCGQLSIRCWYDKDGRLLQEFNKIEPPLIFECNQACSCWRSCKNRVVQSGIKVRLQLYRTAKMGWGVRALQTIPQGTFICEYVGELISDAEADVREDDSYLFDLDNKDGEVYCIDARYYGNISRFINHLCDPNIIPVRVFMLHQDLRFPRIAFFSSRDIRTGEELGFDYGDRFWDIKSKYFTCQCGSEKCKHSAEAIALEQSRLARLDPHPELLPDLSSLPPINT

SMILES: COc1cc2c(NC3CCN(C(C)C)CC3)nc(C3CCCCC3)nc2cc1OCCCN1CCCC1 [UNC0638]
- SNRPN protein, of normal levels (human PWS fibroblasts [1]): approximately 30%
- H3K9me2 in the region associated with NDN (human PWS fibroblasts [2]): reduced
- H3K9me2 enriched at the PWS-IC after treatment (human PWS fibroblasts [2]; ChIP-qPCR, reduction from 17-fold untreated, p<0.05): 3 fold
- H3K9me3 at host transcript of SNORD116 after treatment (human PWS fibroblasts [2]; ChIP-qPCR, reduction from 24-fold untreated, p<0.05): 2 fold
- H3K9me2 at host transcript of SNORD116 after treatment (human PWS fibroblasts [2]; ChIP-qPCR, reduction from 122-fold untreated, p<0.05): 4 fold
- level of H3K9me2 (and H3K9me3) in the PWS-IC (human PWS fibroblasts [2]; in words): drastically reduced

SMILES: COc1cc2c(NC3CCN(C(C)C)CC3)nc(N3CCC(F)(F)CC3)nc2cc1OCCCN1CCCC1 [UNC0642]
- level of Ube3a-AS RNA (m+/pΔS-U mice; brain): not affected
- expression of Snrpn and Snord116 (m+/pΔS-U mice; brain and liver, around P14, RT-PCR and qRT-PCR): readily detectable
- Ube3a protein level (m+/pΔS-U mice; whole brain and cerebellum): not changed; also recorded: not affected
- maternal expression of Snrpn-EGFP [3]: long lasting effect
- inhibition of G9a activity in adult mice (G9a): sufficient to inhibit G9a activity
